In ChEMBL document CHEMBL1201862, “PubChem BioAssay data set” (2004):
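Results reflect a 48-hour exposure of cells in 96-well plates to compound at five concentrations. Here, GI50 denotes the concentration required for 50% inhibition of growth.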 The source made the active and inactive calls. Cut-off read from the data, not from the text of the source: active = GI50 up to about 1.1 µM and inactive = higher.

Legend:
Experiment in all cases: NCI tumour cell line growth inhibition, 48 h
CCRF-CEM = test system: CCRF-CEM
UACC-62 = test system: UACC-62
NCI-H460 = test system: NCI-H460
IGROV-1 = test system: IGROV-1
SK-OV-3 = test system: SK-OV-3
SR = test system: SR
OVCAR-5 = test system: OVCAR-5
NCI-H226 = test system: NCI-H226
ACHN = test system: ACHN
MCF7 = test system: MCF7
KM12 = test system: KM12
UO-31 = test system: UO-31
UACC-257 = test system: UACC-257
HCT-116 = test system: HCT-116
HCT-15 = test system: HCT-15
NCI/ADR-RES = test system: NCI/ADR-RES
A498 = test system: A498
DU-145 = test system: DU-145
COLO 205 = test system: COLO 205
TK-10 = test system: TK-10
PC-3 = test system: PC-3
Hs-578T = test system: Hs-578T
U-251 = test system: U-251
OVCAR-8 = test system: OVCAR-8
SF-268 = test system: SF-268
SW-620 = test system: SW-620
OVCAR-3 = test system: OVCAR-3
SNB-19 = test system: SNB-19
SF-295 = test system: SF-295
HOP-62 = test system: HOP-62
T47D = test system: T47D
K562 = test system: K562
OVCAR-4 = test system: OVCAR-4
786-0 = test system: 786-0
HOP-92 = test system: HOP-92
SF-539 = test system: SF-539
LOX IMVI = test system: LOX IMVI
EKVX = test system: EKVX
HCC 2998 = test system: HCC 2998
Malme-3M = test system: Malme-3M
MDA-MB-435 = test system: MDA-MB-435
SK-MEL-5 = test system: SK-MEL-5
NCI-H23 = test system: NCI-H23
A549 = test system: A549
NCI-H522 = test system: NCI-H522
MDA-MB-231 = test system: MDA-MB-231
M14 = test system: M14
SN12C = test system: SN12C
HL-60 = test system: HL-60
RXF 393 = test system: RXF 393
HT-29 = test system: HT-29
SK-MEL-28 = test system: SK-MEL-28
MOLT-4 = test system: MOLT-4
RPMI-8226 = test system: RPMI-8226
BT-549 = test system: BT-549
SK-MEL-2 = test system: SK-MEL-2
SNB-75 = test system: SNB-75
MDA-N = test system: MDA-N
CAKI-1 = test system: CAKI-1

Measured: GI50

NCCCNc1ccc2c(c1)[n+]([O-])c1ccccc1[n+]2[O-]
inactive: CCRF-CEM 22.4 µM | UACC-62 17.7 µM | NCI-H460 15.7 µM | IGROV-1 12.7 µM | SK-OV-3 14.2 µM | SR 19.1 µM | OVCAR-5 28.4 µM | NCI-H226 12.3 µM | ACHN 21 µM | MCF7 13.9 µM | KM12 25.4 µM | UO-31 35.3 µM | UACC-257 27.2 µM | HCT-116 17.3 µM | NCI/ADR-RES > 100 µM | A498 17.2 µM | DU-145 27 µM | COLO 205 18.3 µM | TK-10 28.4 µM | PC-3 27.4 µM | Hs-578T 18.5 µM | U-251 19.5 µM | OVCAR-8 31.5 µM | SF-268 27.1 µM | SW-620 33 µM | OVCAR-3 19.8 µM | SNB-19 28.3 µM | SF-295 28.8 µM | HOP-62 22.7 µM | T47D 22.7 µM | K562 26.4 µM | OVCAR-4 25 µM | 786-0 29.2 µM | HOP-92 12.7 µM | SF-539 20.6 µM | LOX IMVI 7.14 µM | EKVX 37.2 µM | HCC 2998 23.2 µM | Malme-3M 17.4 µM | MDA-MB-435 31.8 µM | SK-MEL-5 15.2 µM | NCI-H23 35.5 µM | A549 31.5 µM | NCI-H522 13.6 µM | MDA-MB-231 19.9 µM | M14 13.8 µM | SN12C 26 µM | HL-60 19.7 µM | RXF 393 20.1 µM | HT-29 28.6 µM | SK-MEL-28 59.7 µM | MOLT-4 15.7 µM | RPMI-8226 17.6 µM | BT-549 13.6 µM
22.9 µM: HCT-15

C=C1C(=O)OC2(C)CCC1CC1OC1(C)CCC=C(C)CCC2O (centres undefined)
inactive: CCRF-CEM 7.08 µM | UACC-62 61.9 µM | NCI-H460 46.9 µM | IGROV-1 > 100 µM | SK-OV-3 > 100 µM | OVCAR-5 > 100 µM | SK-MEL-2 75 µM | NCI-H226 > 100 µM | ACHN > 100 µM | MCF7 > 100 µM | KM12 > 100 µM | UO-31 57.7 µM | UACC-257 > 100 µM | HCT-116 > 100 µM | NCI/ADR-RES > 100 µM | A498 35.9 µM | DU-145 55 µM | COLO 205 > 100 µM | TK-10 > 100 µM | PC-3 > 100 µM | Hs-578T 57.5 µM | U-251 > 100 µM | OVCAR-8 > 100 µM | SF-268 > 100 µM | SW-620 45.4 µM | OVCAR-3 > 100 µM | SNB-19 > 100 µM | SF-295 > 100 µM | T47D > 100 µM | K562 31 µM | SNB-75 > 100 µM | OVCAR-4 > 100 µM | 786-0 > 100 µM | HOP-92 > 100 µM | SF-539 88.3 µM | LOX IMVI > 100 µM | EKVX > 100 µM | HCC 2998 > 100 µM | Malme-3M > 100 µM | MDA-MB-435 44.3 µM | SK-MEL-5 > 100 µM | MDA-N 25.5 µM | NCI-H23 > 100 µM | CAKI-1 > 100 µM | A549 > 100 µM | NCI-H522 64.7 µM | MDA-MB-231 > 100 µM | M14 > 100 µM | SN12C 37.1 µM | HL-60 21.7 µM | HT-29 > 100 µM | SK-MEL-28 > 100 µM | MOLT-4 30.3 µM | RPMI-8226 53 µM | BT-549 6.24 µM
69.3 µM: HCT-15

COc1cc2c3c(n(C)c(=O)c2cc1OC)-c1cc2c(cc1/C3=C/CCCCBr)OCO2
> 100 µM: HCT-15
inactive: CCRF-CEM 1.7 µM | NCI-H460 17.8 µM | IGROV-1 6.56 µM | SK-OV-3 > 100 µM | SR 1.57 µM | OVCAR-5 > 100 µM | SK-MEL-2 > 100 µM | ACHN 4.4 µM | MCF7 4.73 µM | KM12 > 100 µM | UO-31 71 µM | UACC-257 > 100 µM | NCI/ADR-RES > 100 µM | A498 19.8 µM | COLO 205 > 100 µM | TK-10 > 100 µM | PC-3 > 100 µM | Hs-578T > 100 µM | U-251 40.9 µM | OVCAR-8 > 100 µM | SF-268 37.4 µM | SW-620 16.1 µM | SNB-19 > 100 µM | SF-295 4.5 µM | T47D 3.76 µM | K562 35.6 µM | SNB-75 11.6 µM | 786-0 17.1 µM | HOP-92 57.7 µM | LOX IMVI 62.8 µM | EKVX > 100 µM | Malme-3M > 100 µM | SK-MEL-5 54 µM | MDA-N > 100 µM | NCI-H23 24.8 µM | CAKI-1 5.86 µM | A549 > 100 µM | NCI-H522 4.16 µM | MDA-MB-231 > 100 µM | M14 32.9 µM | HL-60 30.3 µM | RXF 393 > 100 µM | HT-29 > 100 µM | SK-MEL-28 > 100 µM | MOLT-4 4.51 µM | RPMI-8226 2.54 µM | BT-549 > 100 µM
